From ChEMBL document CHEMBL1201862, “PubChem BioAssay data set” (2004) come the findings set out here.

Holding throughout (test): NCI-60 cell line screen, 48 h
The test system of test [1] is A498.
Test [2] relates to CAKI-1.
In test [3] the test system is HCT-116.
Test [4] has as its system HOP-92.
Test [5] deals with M14.
For test [6], the system named is Malme-3M.
Test [7] concerns NCI-H522.
Test [8] relates to OVCAR-4.
Test [9] concerns SF-539.
Test [10] relates to SK-MEL-5.
The test system of test [11] is SK-OV-3.
The subject of test [12] is SN12C.
Test [13] deals with SNB-75.
Test [14] has as its system SR.
For test [15], the system named is SW-620.
Test [16] has as its system UACC-257.
For test [17], the system named is UACC-62.

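Following 48 hours of exposure in 96-well plates, responses at five concentrations were used to interpolate endpoints linearly. At the GI50, growth is halved.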 Calls of active or inactive are those of the source. No stated cut-off is given here; in the data, active = GI50 up to about 1.1 µM and inactive = higher. A value given as a limit tells only on which side of the number the result lay.

Consider `COC(=O)C1Cc2c([nH]c3ccccc23)C=N1` (configuration not stated), for which the GI50 in test [1], in [2], in test [3], in [4], in [5] and in test [6] was > 100 µM (inactive) in each case. The GI50 in [7], in test [8], in [9], in test [10], in [11] and in test [12] was > 100 µM (inactive) each time. The GI50 in test [13] was 60.8 µM (inactive); in [14] it was > 100 µM (inactive); in [15], > 100 µM (inactive); in test [16] it was > 100 µM (inactive); in test [17], > 100 µM (inactive).

For `C=CC1(C)CCC2=C(CCC3C(C)(C(=O)OC)CCCC23C)C1=O` (configuration not stated), the GI50 in test [1] was 14.8 µM (inactive); in [2], 30.3 µM (inactive); in [3], 17.3 µM (inactive); in test [5], 20.8 µM (inactive); in test [6], 17.9 µM (inactive); in [7], 15.1 µM (inactive). Moreover, the GI50 was 14.7 µM (inactive) in [8]; 16.7 µM (inactive) in test [10]; 18.9 µM (inactive) in [11]; 19 µM (inactive) in test [12]; 19 µM (inactive) in test [14]; 17.6 µM (inactive) in test [15]. Besides, the GI50 in [16] is 22.8 µM (inactive); in [17], 18.3 µM (inactive).

Regarding `Clc1ccccc1C(n1ncc2ccccc21)n1ncc2ccccc21`, the GI50 was 35.6 µM (inactive) in [1]; 30.6 µM (inactive) in test [2]; 25.6 µM (inactive) in [3]; 24.3 µM (inactive) in [4]; 31 µM (inactive) in test [5]; 33.9 µM (inactive) in test [6]. The GI50 in test [7] is 15.1 µM (inactive); in [8], 51.6 µM (inactive); in [9], 56.9 µM (inactive); in [10], 30.4 µM (inactive); in test [11], > 10 µM (inactive); in test [12] it was 65.2 µM (inactive). The GI50 was 17 µM (inactive) in test [13]; 27 µM (inactive) in test [14]; 29.7 µM (inactive) in [15]; 40.8 µM (inactive) in test [16]; > 10 µM (inactive) in test [17].

As for `NC1C(O)C(O)C(CO)OC1n1cc(F)c(=O)[nH]c1=O` (configuration not stated), the GI50 in [2], in test [3], in test [4], in test [6], in [7] and in test [8] was > 100 µM (inactive) in each case. Moreover, the GI50 in test [10] was > 100 µM (inactive); in test [11], > 100 µM (inactive); in [12] it was > 100 µM (inactive); in test [13] it was 91.2 µM (inactive); in test [14], > 100 µM (inactive); in test [15] it was > 100 µM (inactive). For the same compound, in test [16], the GI50 is > 100 µM (inactive).

In the case of `COc1cc(-c2cc(O)c3cc4c(cc3n2)OCO4)cc(OC)c1OC`, the GI50 was > 100 µM (inactive) in test [2]; 20.7 µM (inactive) in test [4]; > 100 µM (inactive) in test [5]; > 100 µM (inactive) in test [6]; 62.7 µM (inactive) in test [7]; > 100 µM (inactive) in test [8]. Also, the GI50 is 54.8 µM (inactive) in test [9]; > 100 µM (inactive) in test [10]; 37.5 µM (inactive) in [11]; 70.1 µM (inactive) in test [12]; > 100 µM (inactive) in test [13]; 71 µM (inactive) in test [14]. The GI50 is > 100 µM (inactive) in test [15] and 51.5 µM (inactive) in test [17].

In the case of `O=C1C(=C2CCCC2)CCC1CN1CCCCC1` (configuration not stated), the GI50 was 19.4 µM (inactive) in test [1]; 18.6 µM (inactive) in [3]; 19.5 µM (inactive) in test [4]; 15.7 µM (inactive) in [5]; 16.3 µM (inactive) in test [6]; 1.77 µM (inactive) in [7]. Also, the GI50 was 16.5 µM (inactive) in test [8]; 21 µM (inactive) in test [9]; 18.2 µM (inactive) in test [10]; 16.8 µM (inactive) in [12]; 0.489 µM (active) in test [13]; 20.7 µM (inactive) in test [14]. Further, the GI50 in [15] is 16.4 µM (inactive); in test [16] it was 19.4 µM (inactive); in [17], 18.5 µM (inactive).

In the case of `OCCN1CCN(CCO)Cc2ccccc2OCCOc2ccccc2C1`, the GI50 in test [1] was > 100 µM (inactive); in test [2], > 100 µM (inactive); in test [3] it was 51.6 µM (inactive); in [4], > 100 µM (inactive); in [5], > 100 µM (inactive); in test [6] it was > 100 µM (inactive). The GI50 in test [7], in [8], in [9], in test [10], in test [11] and in test [12] was > 100 µM (inactive) each time. In addition, the GI50 was 33 µM (inactive) in test [13], > 100 µM (inactive) in [14], > 100 µM (inactive) in [15] and > 100 µM (inactive) in test [16].

On to `COC(=O)C1=C(C)N2CCOC2CC1c1ccccc1` (configuration not stated), for which the GI50 is > 100 µM (inactive) in [2]; > 100 µM (inactive) in [3]; 44.7 µM (inactive) in test [4]; > 100 µM (inactive) in test [5]; > 100 µM (inactive) in test [8]; > 100 µM (inactive) in [9]. For the same compound, the GI50 is > 100 µM (inactive) in [10]; > 100 µM (inactive) in test [13]; 78.9 µM (inactive) in [14]; > 100 µM (inactive) in [15]; > 100 µM (inactive) in [16]; > 100 µM (inactive) in test [17].

`CN1Cc2cc3c(cc2-c2ccccc21)OCO3`: the GI50 in test [1], in test [3], in test [4], in [5], in test [7] and in test [8] was > 100 µM (inactive) throughout. Moreover, the GI50 was > 100 µM (inactive) in [9]; > 100 µM (inactive) in test [10]; > 10 µM (inactive) in test [11]; > 100 µM (inactive) in test [12]; > 100 µM (inactive) in [13]; > 100 µM (inactive) in test [14]. The GI50 in test [15], in test [16] and in test [17] was > 100 µM (inactive) throughout.

On to `O=c1c2ccccc2ncn1COCc1ccccc1`, for which the GI50 in test [1], in test [3], in test [4], in test [5], in test [8] and in [9] was > 100 µM (inactive) throughout. Moreover, the GI50 in [10], in test [11], in test [14], in test [15], in test [16] and in [17] was > 100 µM (inactive) throughout.

With `N#CC1C(=O)C(=O)N(c2ccccc2)C1=O` (configuration not stated), the GI50 in [1], in test [2], in test [3], in test [4], in [5] and in [6] was > 100 µM (inactive) in each case. The GI50 in test [7], in test [8], in test [9], in test [10], in [11] and in test [12] was > 100 µM (inactive) throughout. Further, the GI50 in [13] was 81.3 µM (inactive); in [15], > 100 µM (inactive); in test [16] it was > 100 µM (inactive); in test [17], > 100 µM (inactive).

`CC12CC3CC(C1)CC(N=[N+]=[N-])(C3)C2`: the GI50 in test [1], in [2], in test [3], in [4], in test [5] and in [6] was > 100 µM (inactive) in each case. The GI50 in [7], in [8], in test [9], in test [10], in test [11] and in test [12] was > 100 µM (inactive) throughout. Further, the GI50 in test [13], in [15], in [16] and in test [17] was > 100 µM (inactive) each time.

Take `COC(=O)c1sc(=O)n(-c2ccccc2)c1SCc1ccccc1`: the GI50 in test [3] is > 100 µM (inactive); in test [4], 30.1 µM (inactive); in test [5], > 100 µM (inactive); in [6] it was > 100 µM (inactive); in test [7], > 100 µM (inactive); in [8], > 100 µM (inactive). Moreover, the GI50 in [9], in [10], in test [11], in [12], in [13] and in test [14] was > 100 µM (inactive) each time. The GI50 in test [15], in test [16] and in test [17] was > 100 µM (inactive) in each case.

Consider `COc1ccc(C(c2ccc(C(C)C)cc(=O)c2O)c2ccc3cccnc3c2O)cc1` (configuration not stated), for which the GI50 in [2] was 1.79 µM (inactive); in test [3] it was 0.318 µM (active); in [4] it was 0.235 µM (active); in [5] it was 0.933 µM (active); in test [6] it was 0.398 µM (active); in [7] it was 1.8 µM (inactive). For the same compound, the GI50 in test [8] was 2.88 µM (inactive); in [9], 0.357 µM (active); in [10] it was 0.507 µM (active); in test [11], 2.3 µM (inactive); in test [12] it was 0.415 µM (active); in [13], 0.155 µM (active). Besides, the GI50 in [14] is 1 µM (active); in test [15], 3.68 µM (inactive); in [17], 0.735 µM (active).
